For the assay, the system named is P388 leukemia ip, CD2F1 mice, survival T/C. The assay can be described thus: NCI In Vivo Anticancer Drug Screen. Data for tumor model P388 Leukemia (intraperitoneal) in CD2F1 (CDF1) mice. The following applies: endpoint: median survival time, higher = longer survival. A digest of the protocol:
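Mice carrying the transplanted tumor received test compound or vehicle. Survival was recorded in each group, and the value is the treated-group measurement divided by that of the vehicle-treated control group.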

Setting [1] is: dose: 6.25 mg/kg/injection, schedule: Q01DX009 (ip), vehicle: saline.
The mark [2] stands for this setting: dose: 12.5 mg/kg/injection, schedule: Q01DX009 (ip), vehicle: saline.
Where [3] appears, read: dose: 25.0 mg/kg/injection, schedule: Q01DX009 (ip), vehicle: saline.
Setting [4] is: dose: 50.0 mg/kg/injection, schedule: Q01DX005 (ip), vehicle: saline with Tween-80.
[5] abbreviates: dose: 100.0 mg/kg/injection, schedule: Q01DX005 (ip), vehicle: saline with Tween-80.
Setting [6] is: dose: 200.0 mg/kg/injection, schedule: Q01DX005 (ip), vehicle: saline with Tween-80.
Setting [7] is: dose: 12.5 mg/kg/injection, schedule: Q01DX009 (ip), vehicle: water.
The mark [8] stands for this setting: dose: 25.0 mg/kg/injection, schedule: Q01DX009 (ip), vehicle: water.
Setting [9] is: dose: 50.0 mg/kg/injection, schedule: Q01DX009 (ip), vehicle: water.

Several values for one entry are separate records, joined by “and”; a condition that tells them apart may be missing. Equal entries are not always repeated. Inconclusive results and toxic doses are left out.

On to `O=C(C[n+]1ccccc1Br)c1cccc([N+](=O)[O-])c1`, for which the T/C was 103 % of control under setting [1]; 107 % of control under setting [2]; 99 % of control under setting [3]; 103 % of control (dose: 50.0 mg/kg/injection, schedule: Q01DX009 (ip), vehicle: saline).

With `NNC(=O)C(=O)n1ccnc1`, the T/C is 95 % of control under setting [4], 102 % of control under setting [5] and 101 % of control under setting [6].

Regarding `O=C(N1CCOCC1)C12OC3CC(CC(C3)O1)O2`, the T/C is, setting by setting: (dose: 60.0 mg/kg/injection, schedule: Q01DX005 (ip), vehicle: saline) 102 % of control; (dose: 120.0 mg/kg/injection, schedule: Q01DX005 (ip), vehicle: saline) 104 % of control; (dose: 240.0 mg/kg/injection, schedule: Q01DX005 (ip), vehicle: saline) 105 % of control.

On to `CCN(CC)CCNc1ccc(COC(C)=O)c2oc3ccccc3c(=O)c12`, for which the T/C runs as follows: (dose: 6.25 mg/kg/injection, schedule: Q01DX005 (ip), vehicle: saline with Tween-80) 111 % of control; (dose: 12.5 mg/kg/injection, schedule: Q01DX005 (ip), vehicle: saline with Tween-80) 118 % of control.

As to `CCC(=O)/C=C/c1cc(OC)c(OC)c(OC)c1`, the T/C is 107 % of control (dose: 100.0 mg/kg/injection, schedule: Q01DX001 (ip), vehicle: Klucel (hydroxypropylcellulose) (HPC)); 107 % of control (dose: 200.0 mg/kg/injection, schedule: Q01DX001 (ip), vehicle: Klucel (hydroxypropylcellulose) (HPC)); 100 % of control (dose: 400.0 mg/kg/injection, schedule: Q01DX001 (ip), vehicle: Klucel (hydroxypropylcellulose) (HPC)).

Take `CCCCCCCCNC(=O)C1C(=O)N(CCCCCCCC)C(=O)/C1=N/N` (centres undefined): the T/C is, setting by setting: (dose: 100.0 mg/kg/injection, schedule: Q04DX002 (ip), vehicle: saline with Tween-80) 100 % of control; (dose: 200.0 mg/kg/injection, schedule: Q04DX002 (ip), vehicle: saline with Tween-80) 92 % of control.

Regarding `CC(=O)c1c(O)cc2c3c1OC(C)(C)C1CCC(C)(CC31)O2` (centres undefined), the T/C under setting [1] is 105 % of control; the T/C under setting [2] was 105 % of control; the T/C under setting [3] was 104 % of control; the T/C (dose: 100.0 mg/kg/injection, schedule: Q01DX009 (ip), vehicle: saline) is 89 % of control; the T/C (dose: 200.0 mg/kg/injection, schedule: Q01DX009 (ip), vehicle: saline) was 93 % of control.

As to `O=C(CCSCCCl)Nc1c([N+](=O)[O-])cc([N+](=O)[O-])cc1S(=O)(=O)O`, the T/C is, setting by setting: (dose: 3.13 mg/kg/injection, schedule: Q04DX003 (ip), vehicle: DMSO) 104 % of control; (dose: 6.25 mg/kg/injection, schedule: Q04DX003 (ip), vehicle: DMSO) 99 % of control; (dose: 12.5 mg/kg/injection, schedule: Q04DX003 (ip), vehicle: DMSO) 111 % of control; (dose: 25.0 mg/kg/injection, schedule: Q04DX003 (ip), vehicle: DMSO) 124 % of control; (dose: 25.0 mg/kg/injection, schedule: Q04DX003 (ip), vehicle: olive oil, sesame oil, peanut oil) 118 % of control; (dose: 50.0 mg/kg/injection, schedule: Q04DX003 (ip), vehicle: DMSO) 118 % of control. For the same compound, the T/C (dose: 75.0 mg/kg/injection, schedule: Q04DX003 (ip), vehicle: DMSO) is 118 % of control.

In the case of `Cc1cc(NN=O)nc(C)n1`, the T/C runs as follows: (dose: 3.12 mg/kg/injection, schedule: Q01DX009 (ip), vehicle: water) 98 % of control; (dose: 6.25 mg/kg/injection, schedule: Q01DX009 (ip), vehicle: water) 98 % of control; under setting [7], 98 % of control; under setting [8], 100 % of control and 101 % of control; under setting [9], 104 % of control and 106 % of control; (dose: 200.0 mg/kg/injection, schedule: Q01DX009 (ip), vehicle: water) 166 % of control.

Turning to `CCCCCCCCCSCC`, the T/C is, setting by setting: (dose: 50.0 mg/kg/injection, schedule: Q01DX009 (ip), vehicle: saline with Tween-80) 100 % of control; (dose: 100.0 mg/kg/injection, schedule: Q01DX009 (ip), vehicle: saline with Tween-80) 109 % of control; (dose: 100.0 mg/kg/injection, schedule: Q04DX003 (ip), vehicle: saline with Tween-80) 109 % of control; (dose: 200.0 mg/kg/injection, schedule: Q01DX009 (ip), vehicle: saline with Tween-80) 109 % of control; (dose: 200.0 mg/kg/injection, schedule: Q04DX003 (ip), vehicle: saline with Tween-80) 100 % of control; (dose: 400.0 mg/kg/injection, schedule: Q04DX003 (ip), vehicle: saline with Tween-80) 86 % of control.

On to `CN(CCCCn1cnc2ccccc21)N=O`, for which the T/C was 110 % of control (dose: 20.0 mg/kg/injection, schedule: Q01DX001 (ip), vehicle: Klucel (hydroxypropylcellulose) (HPC)); 102 % of control (dose: 40.0 mg/kg/injection, schedule: Q01DX001 (ip), vehicle: Klucel (hydroxypropylcellulose) (HPC)); 110 % of control (dose: 80.0 mg/kg/injection, schedule: Q01DX001 (ip), vehicle: Klucel (hydroxypropylcellulose) (HPC)).

Take `NC(=S)N/N=C\C=N\Nc1ccccc1`: the T/C was 100 % of control (dose: 100.0 mg/kg/injection, schedule: Q04DX003 (ip), vehicle: Klucel (hydroxypropylcellulose) (HPC)) and 100 % of control (dose: 200.0 mg/kg/injection, schedule: Q04DX003 (ip), vehicle: Klucel (hydroxypropylcellulose) (HPC)).

For the compound `O=C(O)C(S)c1ccc2ccccc2c1` (centres undefined), the T/C (dose: 100.0 mg/kg/injection, schedule: Q01DX009 (ip), vehicle: Klucel (hydroxypropylcellulose) (HPC)) is 90 % of control and the T/C (dose: 200.0 mg/kg/injection, schedule: Q01DX009 (ip), vehicle: Klucel (hydroxypropylcellulose) (HPC)) is 100 % of control.

On to `CCn1cc(C(=O)O)c(=O)c2nc(S(C)=O)sc21` (centres undefined), for which the T/C was 103 % of control (dose: 15.0 mg/kg/injection, schedule: Q01DX005 (ip), vehicle: saline with Tween-80); 108 % of control (dose: 30.0 mg/kg/injection, schedule: Q01DX005 (ip), vehicle: saline with Tween-80); 123 % of control and 97 % of control (dose: 60.0 mg/kg/injection, schedule: Q01DX005 (ip), vehicle: saline with Tween-80).

In the case of `O=S(=O)(OI(O)c1ccccc1)c1ccccc1`, the T/C under setting [7] was 98 % of control; the T/C under setting [8] is 116 % of control; the T/C under setting [9] was 105 % of control and 113 % of control.

On to `CCOC(C)n1c(C)nc2ccccc21` (centres undefined), for which the T/C is, setting by setting: (dose: 100.0 mg/kg/injection, schedule: Q04DX002 (ip), vehicle: saline) 99 % of control; (dose: 200.0 mg/kg/injection, schedule: Q04DX002 (ip), vehicle: saline) 101 % of control; (dose: 400.0 mg/kg/injection, schedule: Q04DX002 (ip), vehicle: saline) 97 % of control.

With `O=C(Nc1ccc(N(CCCl)CCCl)cc1)Oc1ccc(C(=O)O)cc1`, the T/C by setting is: (dose: 6.25 mg/kg/injection, schedule: Q01DX009 (ip), vehicle: saline with Tween-80) 179 % of control and 193 % of control; (dose: 12.5 mg/kg/injection, schedule: Q01DX009 (ip), vehicle: saline with Tween-80) 185 % of control and 189 % of control; (dose: 25.0 mg/kg/injection, schedule: Q01DX009 (ip), vehicle: saline with Tween-80) 106 % of control.

In the case of `c1ccc(N2CN(c3ccccc3)C2)cc1`, the T/C was 88 % of control (dose: 60.0 mg/kg/injection, schedule: Q01DX005 (ip), vehicle: Klucel (hydroxypropylcellulose) (HPC)); 86 % of control (dose: 120.0 mg/kg/injection, schedule: Q01DX005 (ip), vehicle: Klucel (hydroxypropylcellulose) (HPC)); 88 % of control (dose: 240.0 mg/kg/injection, schedule: Q01DX005 (ip), vehicle: Klucel (hydroxypropylcellulose) (HPC)).

Turning to `COCCn1nc(-c2ccc(Cl)cc2)c(-c2ccc(Cl)cc2)c(C(C)=O)c1=O`, the T/C was 100 % of control under setting [4], 100 % of control under setting [5] and 93 % of control under setting [6].

With `CCC(c1ccc(OCC(=O)N(CCCl)CCCl)cc1)C(CC)c1ccc(OCC(=O)N(CCCl)CCCl)cc1` (centres undefined), the T/C is, setting by setting: (dose: 100.0 mg/kg/injection, schedule: Q04DX002 (ip), vehicle: suspension in saline) 98 % of control; (dose: 200.0 mg/kg/injection, schedule: Q04DX002 (ip), vehicle: suspension in saline) 97 % of control; (dose: 400.0 mg/kg/injection, schedule: Q04DX002 (ip), vehicle: suspension in saline) 103 % of control.

Source of the values: PubChem BioAssay AID330 (DTP/NCI, 2004).
